Results from patent US6569865B2, “Spiro 1-azabicyclo[2.2.2]octane-3,2′(3′h)-furo[2,3-b]pyridine” (priority 2001, dated 2003).

What was measured:
α7 nAChR = α7 nAChR (Rattus norvegicus, UniProt Q05941); assay: Test A: 125I-α-bungarotoxin binding to rat hippocampal membranes (affinity at α7 nAChR subtype)
Protocol: Test A—Assay for Affinity at α7 nAChR Subtype
125I-α-Bungarotoxin (BTX) binding to rat hippocampal membranes. Rat hippocampi were homogenized in 20 volumes of cold homogenization buffer (HB: concentrations of constituents (mM): tris(hydroxymethyl)aminomethane 50; MgCl2 1; NaCl 120; KCl 5: pH 7.4). The homogenate was centrifuged for 5 minutes at 1000 g, the supernatant was saved and the pellet re-extracted. The pooled supernatants were centrifuged for 20 minutes at 12000 g, washed, and resuspended in HB. Membranes (30-80 μg) were incubated with 5 nM [^125I]α-BTX, 1 mg/mL BSA (bovine serum albumin), test drug, and either 2 mM CaCl2 or 0.5 mM EGTA [ethylene glycol-bis(β-aminoethylether)] for 2 hours at 21° C., and then filtered and washed 4 times over Whatman glass fibre filters (thickness C) using a Brandel cell harvester. […]
IC50 values and pseudo Hill coefficients (nH) were calculated using the non-linear curve-fitting program ALLFIT (DeLean A, Munson P J and Rodbard D (1977) Am. J. Physiol., 235:E97-E102). […]
where a value of n=1 was used whenever nH<1.5 and a value of n=2 was used when nH≧1.5. […] Ki values were determined using 6 or more drug concentrations. […]

α4 nAChR = α4 nAChR (Rattus norvegicus, UniProt P09483+P12390); format: binding
α4 nAChR, sequence (P09483 31-630): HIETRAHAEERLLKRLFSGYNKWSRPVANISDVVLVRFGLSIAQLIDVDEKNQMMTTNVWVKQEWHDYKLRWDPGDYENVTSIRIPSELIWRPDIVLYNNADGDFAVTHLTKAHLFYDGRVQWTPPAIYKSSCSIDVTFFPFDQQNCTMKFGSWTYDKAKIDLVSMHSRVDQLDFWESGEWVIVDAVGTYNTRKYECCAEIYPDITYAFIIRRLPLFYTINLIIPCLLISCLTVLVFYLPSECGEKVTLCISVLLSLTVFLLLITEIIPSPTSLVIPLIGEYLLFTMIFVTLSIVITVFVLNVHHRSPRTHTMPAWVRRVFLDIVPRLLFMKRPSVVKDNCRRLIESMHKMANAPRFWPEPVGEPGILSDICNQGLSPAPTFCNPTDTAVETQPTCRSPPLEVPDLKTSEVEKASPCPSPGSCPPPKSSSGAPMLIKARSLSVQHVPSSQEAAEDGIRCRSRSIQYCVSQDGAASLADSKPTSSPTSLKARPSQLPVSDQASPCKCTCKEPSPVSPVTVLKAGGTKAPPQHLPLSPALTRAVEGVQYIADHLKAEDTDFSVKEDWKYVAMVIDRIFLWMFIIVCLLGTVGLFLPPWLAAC
α4 nAChR, sequence (P12390 25-500): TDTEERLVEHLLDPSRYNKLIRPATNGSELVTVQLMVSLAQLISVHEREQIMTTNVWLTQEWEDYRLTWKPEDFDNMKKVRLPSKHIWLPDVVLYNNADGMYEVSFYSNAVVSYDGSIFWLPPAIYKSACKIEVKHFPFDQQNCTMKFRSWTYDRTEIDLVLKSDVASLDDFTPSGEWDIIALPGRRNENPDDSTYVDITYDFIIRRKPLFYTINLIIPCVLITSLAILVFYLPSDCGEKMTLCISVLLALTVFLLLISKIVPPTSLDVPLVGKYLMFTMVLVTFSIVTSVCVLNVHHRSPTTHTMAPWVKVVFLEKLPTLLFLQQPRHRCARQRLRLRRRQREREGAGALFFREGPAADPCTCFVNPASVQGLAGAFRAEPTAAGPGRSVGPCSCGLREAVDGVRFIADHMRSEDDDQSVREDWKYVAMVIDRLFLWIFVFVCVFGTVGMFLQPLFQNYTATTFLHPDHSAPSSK
Protocol: Binding Data Analysis for Tests A and B
Ki values were determined using 6 or more drug concentrations.

α7 nAChR, sequence (Q05941 23-502): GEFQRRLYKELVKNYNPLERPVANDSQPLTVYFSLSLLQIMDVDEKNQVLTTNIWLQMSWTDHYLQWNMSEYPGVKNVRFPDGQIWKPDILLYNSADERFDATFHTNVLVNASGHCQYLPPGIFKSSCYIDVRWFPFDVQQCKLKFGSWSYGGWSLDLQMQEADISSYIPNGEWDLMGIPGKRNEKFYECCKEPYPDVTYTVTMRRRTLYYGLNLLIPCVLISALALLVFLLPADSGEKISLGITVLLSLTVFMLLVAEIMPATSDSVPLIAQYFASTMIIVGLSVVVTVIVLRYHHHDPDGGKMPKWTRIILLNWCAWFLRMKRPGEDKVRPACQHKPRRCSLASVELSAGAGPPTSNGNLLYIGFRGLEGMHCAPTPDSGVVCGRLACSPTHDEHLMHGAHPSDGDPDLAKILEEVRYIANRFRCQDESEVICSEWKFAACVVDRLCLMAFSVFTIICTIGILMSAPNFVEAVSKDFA

Molecule | Kd (α7 nAChR; read-out: KD of radioligand from saturation curves (one site model)) [nM] | Ki (α7 nAChR; 125I-α-BTX displacement, rat hippocampal membranes) [nM] | nAChR Binding Selectivity (Ratio α4 Ki/α7 Ki) (α4 nAChR)
125I-α-Bungarotoxin [Compound 125I-α-BTX, reference compound] | 1.67 |  | 
c1cc(-c2cnc3c(c2)C[C@@]2(CN4CCC2CC4)O3)co1 [Compound 3, (2′R)-5′-(3-furanyl)spiro[1-azabicyclo[2.2.2]octane-3,2′(3′H)-furo[2,3-b]pyridine]] |  | 0.033 | 88000
